Experimental data from article PMC7913412, “Identification and characterization of heteroclitic peptides in TCR-binding positions with improved HLA-binding efficacy” (Journal of Translational Medicine, 2021).

The sequences below were run against H2-Db molecule (Mus musculus, UniProt P01899) (assay: Peptide binding affinity assay on TAP-deficient RMA-S cells (anti-H-2Db staining, flow cytometry)). Conditions: 3 x 10^5 cells/well, peptide 1, 5, 10 μM, 4 h at 37 °C, anti-H-2Db antibody, flow cytometry MFI, triplicate.
Format: cell-based
Protocol: Peptide binding affinity to H2-Db molecule was performed for each selected peptide. Tap-deficient mouse derived H-2Db RMA-S cells were cultured for 24 h at 26 °C to accumulate empty MHC-I molecules on the cell surface. Cells were washed in serum-free medium and incubated at 3 × 10^5 cells/well with varying concentrations of peptides (1 μM, 5 μM, 10 μM) for 4 h at 37 °C with 5% CO2. Cells were harvested, washed with phosphate-buffered saline (1 × PBS; Gibco Life Technologies), stained with anti-H-2Db fluorescent monoclonal antibody (cat. 1157535; SONY) and analyzed by flow cytometry. All the experiments were performed in triplicate.
In order to experimentally confirm the binding of heteroclitic peptides to H-2 Db molecule, the H-2 Db positive RMA-S cell line was loaded with different concentrations (1 μM, 5 μM, 10 μM) of selected heteroclitic peptides modified in p4 with a predicted affinity higher than the wt peptide.

Sequence of H2-Db molecule (P01899 whole entry, looked up): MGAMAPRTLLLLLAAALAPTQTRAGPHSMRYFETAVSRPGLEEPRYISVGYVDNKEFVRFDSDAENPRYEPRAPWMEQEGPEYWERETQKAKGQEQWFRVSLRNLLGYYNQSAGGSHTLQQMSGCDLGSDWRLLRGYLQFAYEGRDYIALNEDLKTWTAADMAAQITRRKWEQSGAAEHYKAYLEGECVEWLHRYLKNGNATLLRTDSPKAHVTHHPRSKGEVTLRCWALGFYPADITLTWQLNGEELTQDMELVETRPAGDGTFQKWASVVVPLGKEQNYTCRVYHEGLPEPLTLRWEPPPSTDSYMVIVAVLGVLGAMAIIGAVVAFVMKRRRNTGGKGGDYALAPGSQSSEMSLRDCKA

Row | Sequence | Binding to H-2Db compared with the wt peptide (in words)
1 | RAHWNIVTF [RAHWNIVTF (MUT418), heteroclitic HPV-E7 peptide, Trp at p4] | strongest binding
2 | SVYCFFVWL [SVYCFFVWL (MUT41), heteroclitic Trp2 peptide, Cys at p4] | binding lower than the wt
3 | SVYEFFVWL [SVYEFFVWL (MUT42), heteroclitic Trp2 peptide, Glu at p4] | binding lower than the wt
4 | SVYWFFVWL [SVYWFFVWL (MUT417), heteroclitic Trp2 peptide, Trp at p4] | binding lower than the wt
